Test results from US9176131B2, “Method for diagnosing and treating Crohn's disease” (priority 2004, dated 2015).

Tested on: E. coli LF82 strain (adhesion to the brush border of the enterocytes via the type 1 pili)
Assay: Assay of inhibition by D-mannose of adhesion of E. coli LF82 to isolated enterocytes
Type: cell-based, Escherichia coli
Conditions: for Adhesion index with 2% D-mannose: 2% (w/v) D-mannose, mean number of bacteria adhering to the brush border of an enterocyte; for Adhesion index (% relative) with 2% D-mannose: compared with absence of D-mannose = 100%
Procedure: The adhesion trials were performed as described in Darfeuille-Michaud et al., (1990); S. Knutton et al., (1985) and B. Lafeuille et al., (1981). The frozen intestinal samples were washed 3 times in PBS and the ileal mucosa was scraped with a cover glass in order to detach the enterocytes in PBS buffer supplemented with 0.25 M EDTA. About 10^5 isolated enterocytes were mixed with 10^8 E. coli cells in MEM medium containing 10% fetal calf serum (FCS, Seromed). After incubating for 2 hours at 37° C. and with gentle stirring, the enterocytes were washed 3 times in PBS (pH 7.2). The adhesion of the bacteria was quantified by examining under a phase contrast microscope at magnification×1000. The counting was performed according to a double blind design in order to determine the number of E. coli adhering to the brush border of 30 to 50 enterocytes. The adhesion index is expressed as number of bacteria attached to the brush border of one enterocyte.
The inhibitory power of D-mannose on the adhesion of the E. coli LF82 strain to the brush border of the enterocytes via the type 1 pili was tested. Adhesion trials were performed in the presence of 2% (w/v) D-mannose (Sigma) in MEM containing 10% FCS, the procedure being carried out as described above on enterocytes obtained from 3 CD patients (A, B and C) The results are presented in Table 3.

SMILES: O=C[C@@H](O)[C@@H](O)[C@H](O)[C@H](O)CO [D-mannose]
- Adhesion index with 2% D-mannose (enterocytes of CD patient A): 0.028
- Adhesion index (% relative) with 2% D-mannose (enterocytes of CD patient A): 2.7%
- Adhesion index with 2% D-mannose (enterocytes of CD patient B): 0.032
- Adhesion index (% relative) with 2% D-mannose (enterocytes of CD patient B): 2.1%
- Adhesion index with 2% D-mannose (enterocytes of CD patient C): 0.025
- Adhesion index (% relative) with 2% D-mannose (enterocytes of CD patient C): 1.4%
- Effect on index of adhesion of the LF82 strain to the brush border of the enterocytes (enterocytes of patients suffering from Crohn's disease, 2% D-mannose): significant reduction
